Test results published in patent US20190060340A1, “NOVEL AMINOGLYCOSIDES AND USES THEREOF IN THE TREATMENT OF GENETIC DISORDERS” (Technion Research & Development Foundation Limited, priority 2007, published 2019).
≈ marks a conversion by molar mass, not a printed value. Where “and” joins values, the source holds several entries; their conditions need not be identical. Identical values can stand only once. Like-named read-outs stand apart in the source and are kept apart here.

Tests used:
[1] = system: R3X nonsense mutation (a premature UGA C stop codon) of the PCDH15 gene; assay: In vitro suppression and translation, pDB650-R3X reporter plasmid in rabbit reticulocyte lysate coupled transcription/translation system; assay type: biochemical, human; settings: for Conc. (concentration at which maximal suppression level was observed) / Supp. level (%), maximal in-vitro mutation suppression: R3X mutation; for Supp. level (%), maximal in-vitro mutation suppression: 35-kDa product out of total protein; for Supp. level (%), maximal in-vitro mutation suppression / Trans. level (%): at Conc. of maximal suppression; for Concentration (μM) at which maximal suppression was observed, R3X / suppression level (%), maximum in vitro, R3X: Table 20; for suppression level (%), maximum in vitro, R3X: at concentration of maximal suppression; for Trans. level (%): total protein relative to no compound
Protocol: Initially, Compounds 1-9 were tested for their ability to suppress this nonsense mutation in vitro, using a reporter construct carrying the R3X nonsense mutation (a premature UGA C stop codon) of the PCDH15 gene. Mutations in the PCDH15 gene which encodes protocardherin 15, cause type 1 Usher syndrome (USH1), which is characterized by profound prelingual hearing loss, vestibular areflexia, and prepubertal onset of retinitis pigmentosa (RP). Four different PCDH15 USH1-causing nonsense mutations, R3X, R245X, R643X, and R929X, have been reported in humans.
Suppression of nonsense mutations by Compounds 1-9 was tested in vitro using a reporter plasmid harboring the R3X mutation of the PCDH15 gene. To create this plasmid, the oligonucleotides 5′-[…]-3′ (SEQ ID NO: 1) and 5′-[…]-3′ (SEQ ID NO: 2) were annealed to each other and inserted into the BamHI and HindIII sites of plasmid pDB650 [6].
The resulting reporter plasmid pDB650-R3X contained a TGA C nonsense mutation between a 25-kDa polypeptide encoding open reading frame (ORF) and a 10-kDa polypeptide encoding ORF.
The plasmid was transcribed and translated in a rabbit reticulocyte lysate coupled transcription/translation system (Promega) in the presence of [^35S]-methionine, and the reaction products were separated by SDS-PAGE and quantified using Phosphorlmager analysis. The mutation suppression level was calculated as the relative proportion of the 35-kDa product out of total protein (the sum of 35-kDa and 25-kDa), and the translation level was calculated as the relative proportion of the total protein at each tested compound concentration out of the total protein without the presence of the tested compounds.
The tested concentrations of paromomycin were 0, 5, 10, 20, 30 and 40 μg/ml, tested concentrations of gentamicin were 0, 5, 10, 20, and 30 μg/ml, and the tested concentrations of Compounds 1-9 were in the range of 0-160 μg/ml.
Compound 37 was tested for its ability to suppress a nonsense mutation in-vitro, using a reporter construct carrying either R3X nonsense mutation (a premature UGA C stop codon) or R245X nonsense mutation (a premature UGA A stop codon) of the PCDH15 gene, using gentamicin, paromomycin and Compound 3 as standards and following the experimental procedures presented hereinabove.
For the rat-PGM-β-Gal in vitro readthrough system, the pDB series of reporter plasmids harbor the following elements under SP6 promoter control: an open reading frame (ORF) derived from the 5′ end of the rat PGM gene, which encodes a 25-kDa polypeptide; another small ORF, encoding the 10-kDa alpha complementation region of β-galactosidase, and terminated by tandem, in-frame stop codons (UAA UAG); located between the two ORFs is a DNA fragment derived from PCDH15 cDNA, including the tested stop mutation or the corresponding wild-type codon, and six upstream and downstream flanking codons (except for p.R3X constructs, in which there are only two upstream PCDH15-flanking codons). The fragments were created by annealing the following couples of complementary oligonucleotides:
The fragments were inserted into the BamHI and HindIII restriction sites of the pDB read-through construct. Reporter plasmids harboring each of the four nonsense mutations and the corresponding wt alleles were in vitro transcribed and translated using the TNT SP6 Coupled Reticulocyte lysate System (Promega) in the presence of [^35S]-methionine and increasing concentrations of aminoglycosides as described previously. […] The degree of suppression was calculated as the relative proportion of the 35-kDa product out of total reaction products (35-kDa and 25-kDa polypeptides). The results are averages of at least three independent experiments.

[2] = system: UGA C stop codon (p2LUC plasmid) in COS-7 cells; assay: Ex vivo suppression, p2LUC dual luciferase reporter plasmid in COS-7 cells; assay type: cell-based, monkey; settings: 24 hours incubation
Protocol: Recent studies on enhanced production of functional proteins from nonsense codon-containing genes by promoter-activating agents support this presumption. To test this possibility, Compound 3 along with paromomycin and gentamicin, were evaluated for the UGA C stop codon read-through activity in cultured cells using a dual luciferase reporter system.
Suppression of nonsense mutations by Compounds 1-9 was tested ex vivo using a dual luciferase reporter plasmid. The p2LUC plasmid harboring the UGAC mutation was transfected to COS-7 cells with Lipofectamine 2000 (Invitrogen) and addition of tested compounds was performed after 15 hours. Luciferase activity was determined after 24 hours of incubation, using the Dual Luciferase Reporter Assay System (Promega) and stop codon readthrough was calculated as described previously.

[3] = system: prokaryotic translation; assay: Inhibition of prokaryotic translation; assay type: biochemical; settings: for preference for inhibiting translation in prokaryotes versus eukaryotes: from IC50 values
[4] = system: MDCK (canine kidney); assay: Cell toxicity assay (XTT cell proliferation); assay type: cell-based; settings: 48 hours
Protocol: (§1) After 1 day the medium was changed to medium without streptomycin and different concentrations of the tested compounds were added. After 48 hours a cell proliferation assay (XTT based colorimetric assay, Biological Industries) was performed, using the 5 hours incubation protocol, according to the manufacturer's instructions. Optical density (OD) was read using an Elisa plate reader. Cell viability was calculated as the ratio between the number of living cells in cultures grown in the presence of the tested compounds, versus the corresponding cell cultures which were grown without the tested compounds.

[5] = system: R3X nonsense mutation of the PCDH15 gene in COS-7 cells; assay: Ex vivo readthrough assay, p2luc-R3X dual luciferase reporter plasmid in COS-7 cells; assay type: cell-based, monkey
Protocol: For the, suppression of nonsense mutations by novel compounds was tested ex vivo using a dual luciferase reporter plasmid ex vivo readthrough assay. To generate the p2luc plasmid harboring the R3X nonsense mutation of the PCDH15 gene, the following oligonucleotides: 5′-[…]-3′ (SEQ ID NO: 21) and 5′-[…]-3′ (SEQ ID NO: 22) were annealed to each other and inserted into to polylinker sequence of the p2luc vector. The reporter plasmid p2luc-R3X was transfected to cos-7 cells with Lipofectamine 2000 (Invitrogen) and addition of tested compounds was performed 5 hours post transfection. Luciferase activity was determined after 24 hours of incubation, using the Dual Luciferase Reporter Assay System (Promega) and stop codon readthrough was calculated as described previously.

[6] = Cell toxicity of Compound 37; assay type: cell-based
[7] = system: human cytoplasmic A site olygonucleotide model duplexes; assay: UV melting of A site oligonucleotide model duplexes; assay type: binding
From the text: FIG. 7 presents the UV melting profiles observed for the human cytoplasmic A site olygonucleotide model duplexes in the absence of any drug (“No Drug” curve in FIG. 7) and in complex with ribostamycin (“Ribostamycin” curve in FIG. 7), Compound 3 (“NB30” curve in FIG. 7) and Compound 37 (“NB54” curve in FIG. 7) complexes at a drug/duplex ratio of 5:1;

[8] = Cell toxicity assay (XTT cell proliferation); assay type: cell-based
Protocol: as §1

[9] = available toxicity data on aminoglycosides; unit inferred; cited from earlier work

Molecule	Conc. (concentration at which maximal suppression level was observed) ([1]; in vitro)	Supp. level (%), maximal in-vitro mutation suppression [1]	Concentration (μM) at which maximal suppression was observed, R3X [1]	suppression level (%), maximum in vitro, R3X [1]	Trans. level (%) [1]	ex-vivo suppression of nonsense mutation (read-through activity), FIG. 4 [2]	preference for inhibiting translation in prokaryotes versus eukaryotes [3]	efficacy of inhibiting prokaryotic ribosome relative to gentamicin and paromomycin [3]	further results
gentamicin [reference compound]	30 µg/mL	49 ± 4%	46 µM	50 ± 3%	about 40%	less efficient than either paromomycin or Compound 3	about tree order of magnitude	–	Trans. level (%) ([1]; listed as Gentamicin): 40 ± 9%; LC50 MDCK [4]: 510 ± 70 µg/mL
NCC[C@H](O)C(=O)N[C@@H]1CC(N)[C@@H](O[C@H]2OC(CO)[C@@H](O)C(O)C2N)C(O[C@@H]2O[C@H](CN)C(O)C2O)C1O (stereo partly shown) [Compound 37]	–	–	153 µM	71% and 71 ± 9%	–	–	about two-order of magnitude	significantly lower	maximum suppression level of the R3X nonsense mutation [5]: 5.25%; cell toxicity in comparison to paromomycin and gentamicin [6]: significantly reduced; affinity to the cytoplasmic A site versus Compound 3 [7]: greater affinity
NC[C@@H]1O[C@H](O[C@H]2[C@@H](O)[C@H](O[C@@H]3[C@@H](O)[C@H](N)C[C@H](N)[C@H]3O[C@H]3O[C@H](CO)[C@@H](O)[C@H](O)[C@H]3N)O[C@@H]2CO)[C@H](N)[C@@H](O)[C@@H]1O [paromomycin, reference compound]	40 µg/mL	49%	56 µM	49 ± 6%	about 40%	–	about tree order of magnitude	–	Supp. level (%), maximal in-vitro mutation suppression ([1]; listed as Paromomycin): 49 ± 6%; Trans. level (%) ([1]; listed as Paromomycin): 40 ± 13%; CC50 at 48 h ([8]; dog): 1000 ± 60 µg/mL (≈ 1.62 mM); CC50 at 48 h ([8]; human): 770 ± 140 µg/mL (≈ 1.25 mM); CC50 at 48 h ([8]; monkey): 900 ± 100 µg/mL (≈ 1.46 mM); LD50 [9]: 160 mg/kg
NC[C@H]1O[C@@H](O[C@@H]2[C@@H](O)[C@H](N)C[C@H](N)[C@H]2O[C@H]2O[C@H](CO)[C@@H](O)[C@H](O)[C@H]2N)[C@H](O)[C@@H]1O [Compound 3]	80 µg/mL	21 ± 3%	142 µM	21% and 21 ± 9%	–	superior to that of paromomycin and gentamicin at all the tested concentrations	about two-order of magnitude	significantly lower	fold higher activity compared to Compound 1 ([1]; R3X, in vitro): over 3 fold; fold higher suppression level compared to Compound 2 ([1]; R3X, in vitro): 13 fold; CC50 at 48 h ([8]; dog, MDCK cells, 48 hours, read-out: LC50 MDCK): 7530 ± 1210 µg/mL (≈ 16.6 mM); CC50 at 48 h ([8]; human, HEK-293 cells, 48 hours, read-out: LC50 HEK293): 4820 ± 920 µg/mL (≈ 10.6 mM); CC50 at 48 h ([8]; monkey, COS-7 cells, 48 hours, read-out: LC50 COS-7): 7030 ± 1850 µg/mL (≈ 15.5 mM)
